Reference: US11865128B2, “Aminoglycosides and uses thereof in treating genetic disorders” (Technion Research & Development Foundation Limited, priority 2010, dated 2024)
In brackets after ≈: the same amount, converted by molar mass. Entries after “also recorded” stand apart in the source; their conditions may differ. Read-outs that look alike come from different tables or passages of the source.

How the values were obtained:
B. subtilis ATCC6633 = test: Antibacterial activity MIC, double-microdilution; type: cell-based, Bacillus subtilis; settings: Bacillus subtilis, ATCC6633, read-out: Antibacterial activity MIC B. subtilis ATCC6633
E. coli R477/100 = test: Antibacterial activity MIC, double-microdilution; type: cell-based, Escherichia coli; settings: Escherichia coli, R477/100, read-out: Antibacterial activity MIC E. coli R477/100
[1] = biological target: Prokaryotic system (prokaryotic ribosome); test: Prokaryotic translation inhibition, coupled transcription/translation, luciferase detection; type: biochemical
Experimental: Prokaryotic and eukaryotic translation inhibition was quantified in coupled transcription/translation assays by using active luciferase detection, performed as described hereinabove. […] All the experiments were performed in duplicates and analogous results were obtained in three different experiments. In all biological tests, all tested aminoglycosides were in their sulfate salt forms. The concentrations reported refer to that of the free amine form of each aminoglycoside.
In all biological experiments conducted, all tested aminoglycosides were in their sulfate salt forms. The concentrations reported in Table 3 refer to that of the free amine form of each aminoglycoside. Prokaryotic and eukaryotic translation inhibition was quantified in coupled transcription/translation assays as previously described. The half-maximal concentration (IC50) values were obtained from fitting concentration response curves to the data of at least three independent experiments, using GraFit 5 software. All the experiments were performed in duplicates and analogous results were obtained in three different experiments.

[2] = biological target: Eukaryotic system (eukaryotic cytoplasmic ribosome); test: Eukaryotic translation inhibition, coupled transcription/translation, luciferase detection; type: biochemical; settings: for Prokaryotic versus Eukaryotic selectivity IC50^Euk/IC50^Pro: ratio of eukaryotic to prokaryotic translation inhibition IC50; for more specific to the eukaryotic ribosome than parent (NB30 or NB54): comparison of eukaryotic IC50 values with parent structure
Text: Prokaryotic and eukaryotic translation inhibition was quantified in coupled transcription/translation assays by using active luciferase detection, performed as described hereinabove. […] In all biological tests, all tested aminoglycosides were in their sulfate salt forms. The concentrations reported refer to that of the free amine form of each aminoglycoside.
In all biological experiments conducted, all tested aminoglycosides were in their sulfate salt forms. The concentrations reported in Table 3 refer to that of the free amine form of each aminoglycoside. Prokaryotic and eukaryotic translation inhibition was quantified in coupled transcription/translation assays as previously described. The half-maximal concentration (IC50) values were obtained from fitting concentration response curves to the data of at least three independent experiments, using GraFit 5 software.

[3] = Cell toxicity LC50 in HFF cells; type: cell-based; settings: human
Experimental: (§1) In order to ensure suitable cell viability for each of the tested compounds at the concentrations tested, cell toxicity was evaluated for each compound by measuring the half-maximal-lethal concentration value (LC50 values) in HEK-293 and HFF (human foreskin fibroblasts) cells.
(§2) The percentages of cell viability were calculated as the ratio between the numbers of living cells in cultures grown in the presence of the tested compounds, versus cultures grown under the identical protocol but without the tested compound. The results represent averages of at least three independent experiments.
(§3) The half-maximal lethal concentration (LC50) values were obtained from fitting concentration-response curves to the data of at least three independent experiments, using GraFit 5 software.

[4] = Cell toxicity LC50 in HEK-293 cells; type: cell-based; settings: human
Experimental: as §1, §2, §3

[5] = tested on: nonsense mutation constructs R3X, R245X, G542X, W1282X, Q70X, R3381X (PCDH15, CFTR, IDUA, Dystrophin); test: In vitro stop codon readthrough assay, p2Luc dual luciferase, TNT reticulocyte lysate; type: biochemical; settings: cell-free, mutations tested; comparison in words from FIGS. 2, 3, 5-7
Text: DNA fragments derived from PCDH15, CFTR, Dystrophin and IDUA cDNAs, including the tested nonsense mutation or the corresponding wild type (wt) codon, and four to six upstream and downstream flanking codons were created by annealing following pairs of complementary oligonucleotides:
The fragments were inserted in frame into the polylinker of the p2Luc plasmid between either BamHI and SacI (p.R3X and p.R245X), or SalI and SacI (all the rest) restriction sites.
For the in vitro readthrough assays, the obtained plasm ids, with addition of the tested aminoglycosides were transcribed and translated using the TNT Reticulocyte Lysate Quick Coupled Transcription/Translation System. Luciferase activity was determined after 90 minutes of incubation at 30° C., using the Dual Luciferase Reporter Assay System (Promega™).
Initially, the influence of the chiral C5″-methyl group on readthrough potential was evaluated on the pseudo-trisaccharides NB118 and NB119 by using a dual luciferase reporter assay system as described hereinabove. Briefly, DNA fragments were cloned between BamHI and SacI restriction sites of the p2luc vector and the obtained constructs were transcribed and translated using TNT quick coupled transcription/translation system. The amount of the translated products was evaluated using the dual luciferase reporter assay system and used to calculate the suppression level.

[6] = tested on: nonsense mutation constructs R3X, R245X, Q70X, W1282X, G542X in HEK-293 cells; test: Ex vivo stop codon readthrough assay, p2luc constructs transfected to HEK-293 cells; type: cell-based, human; settings: ex vivo in HEK-293, all the mutations tested, FIGS. 4, 8-10
Experimental: For the ex vivo readthrough assays, the constructs harboring the R3X, R245X, Q70X and W1282X mutations were transfected to HEK-293 cells with Lipofectamine 2000 (Invitrogen) and addition of the tested compounds was performed 6 hours post transfection. The cells were harvested following 16 hours of incubation with the tested aminoglycosides. Stop codon readthrough was calculated as previously described (see, Grentzmann, G. et al., RNA, 1998, 4, p. 479).
The constructs were transfected into a human embryonic kidney cell line (HEK-293) and incubated with varying concentrations of NB122, NB123, NB54 and the control drug gentamicin, and the results are presented in FIGS. 4A-D.
As described hereinabove, the constructs of p2luc plasmid harboring the R3X, R245X, Q70X and W1282X mutations were transfected to HEK-293 cells using lipofectamine2000 and the tested compounds were added 6 hours post transfection. Cells were harvested after 16 hours incubation and luciferase activity was determined using the dual luciferase reporter assay system (Promega™). Stop codon readthrough was calculated as described previously, and the results are averages of at least three independent experiments.

[7] = Table 1, free amine concentration, sulfate salts tested
[8] = Table 1, read-out: Translation inhibition Prokaryotic system IC50
[9] = Table 3, read-out: Translation Inhibition IC50^Pro
[10] = Table 1, read-out: Translation inhibition Eukaryotic System IC50
[11] = Table 3, read-out: Translation Inhibition IC50^Euk
[12] = HFF (human foreskin fibroblast) cells, Table 1, read-out: Cell toxicity LC50 HFF
[13] = HEK-293 cells, Table 1, read-out: Cell toxicity LC50 HEK-293

Structure (SMILES)	MIC (B. subtilis ATCC6633; [7])	MIC (E. coli R477/100; Table 1)	IC50 [1, 8]	IC50 [1, 9]	IC50 [2, 10]	IC50 [2, 11]	Prokaryotic versus Eukaryotic selectivity IC50^Euk/IC50^Pro [2]	CC50 [3, 12]	CC50 [4, 13]	in vitro readthrough activity (stop codon suppression level) [5]	observed efficacy of aminoglycoside-induced readthrough, order [6]	further results
C[C@@H](N)[C@H]1O[C@@H](OC2C(O)[C@H](N)CC(N)[C@H]2O[C@H]2OC(CO)[C@@H](O)C(O)C2N)C(O)C1O (stereo partly drawn) [NB119, 5-O-(5-Amino-5,6-dideoxy-β-D-allofuranosyl)-paromamine]	78 µM	4990 µM (≈ 2340 µg/mL)	2130 ± 478 nM	2130 ± 478 nM	28 ± 1.1 µM	28 ± 1.1 µM	13	20.1 ± 0.6 mM	19.8 ± 0.4 mM	comparatively small		
NC[C@@H]1O[C@H](O[C@H]2[C@@H](O)[C@H](O[C@@H]3[C@@H](O)[C@H](N)C[C@H](N)[C@H]3O[C@H]3O[C@H](CO)[C@@H](O)[C@H](O)[C@H]3N)O[C@@H]2CO)[C@H](N)[C@@H](O)[C@@H]1O [Paromomycin, reference compound]	1.2 µM	22 µM (≈ 13.5 µg/mL)	51 ± 5 nM	51 ± 5 nM	57 ± 4 µM	57 ± 4 µM	1,118					more selective to prokaryotic versus eukaryotic ribosome [2]: 1,118 fold; CC50 [3]: 3.1 ± 0.4 mM; CC50 [4]: 4.1 ± 0.5 mM
C[C@H](N)[C@H]1O[C@@H](OC2C(O)[C@H](N)CC(N)[C@H]2O[C@H]2OC([C@@H](C)O)[C@@H](O)C(O)C2N)C(O)C1O (stereo partly drawn) [NB124, 6′-(R)-Methyl-5-O-(5-amino-5,6-dideoxy-α-L-talofuranosyl)-Paromamine]				1100 ± 185 nM		1.49 ± 0.08 µM	1.3			improved significantly compared to that of the clinical drug gentamicin	NB124>NB125>NB74>gentamicin	MIC (B. subtilis ATCC6633; Table 2): 96 µM (≈ 46.3 µg/mL); MIC (E. coli R477/100; Table 2): 768 µM (≈ 371 µg/mL); IC50 ([1]; Table 2, read-out: Translation Inhibition Prokaryotic system IC50): 1100 ± 185 nM; IC50 ([2]; Table 2, read-out: Translation Inhibition Eukaryotic System IC50): 1.49 ± 0.08 µM; CC50 ([3]; HFF (human foreskin fibroblast) cells, Table 2, read-out: Cell toxicity LC50 HFF): 4.75 ± 0.33 mM; CC50 ([4]; HEK-293 cells, Table 2, read-out: Cell toxicity LC50 HEK-293): 5.4 ± 0.45 mM
NC1C(OCOC2C(N)[C@H](O[C@H]3C(N)C[C@H](N)C(O)C3O)OC(CO)[C@@H]2O)[C@H](O)C(CO)O[C@@H]1O[C@@H]1C(N)C[C@@H](N)C(O)C1O (stereo partly drawn) [NB33, reference compound]							about 2			essentially no readthrough activity; also recorded: almost no readthrough activity		
C[C@@H](N)[C@H]1O[C@@H](OC2C(O)[C@H](NC(=O)[C@@H](O)CCN)CC(N)[C@H]2O[C@H]2OC(CO)[C@@H](O)C(O)C2N)C(O)C1O (stereo partly drawn) [NB123, 5-O-(5-Amino-5,6-dideoxy-β-D-allofuranosyl)-1-N—[(S)-4-amino-2-hydroxy-butanoyl] paromamine]	33 µM	1060 µM (≈ 602 µg/mL)	811 ± 59 nM	811 ± 59 nM	4.6 ± 0.6 µM	4.6 ± 0.6 µM	5.7	19.3 ± 1.5 mM	13.9 ± 1.3 mM		NB122≥NB123>NB54>gentamicin	
C[C@H](N)[C@H]1O[C@@H](OC2C(O)[C@H](NC(=O)[C@@H](O)CCN)CC(N)[C@H]2O[C@H]2OC(CO)[C@@H](O)C(O)C2N)C(O)C1O (stereo partly drawn) [NB122, 5-O-(5-Amino-5,6-dideoxy-α-L-talofuranosyl)-1-N—[(S)-4-amino-2-hydroxy-butanoyl]paromamine]	33 µM	1070 µM (≈ 608 µg/mL)	2270 ± 196 nM	2270 ± 196 nM	5.2 µM	5.2 ± 0.7 µM	2.3	8.1 ± 1.4 mM	10.1 mM	induced the highest level of readthrough	NB122≥NB123>NB54>gentamicin	more specific to the eukaryotic ribosome than parent (NB30 or NB54) [2]: 4.6 fold
C[C@H](N)[C@H]1O[C@@H](OC2C(O)[C@H](N)CC(N)[C@H]2O[C@H]2OC(CO)[C@@H](O)C(O)C2N)C(O)C1O (stereo partly drawn) [NB118, 5-O-(5-Amino-5,6-dideoxy-α-L-talofuranosyl)-paromamine]	83 µM	2660 µM (≈ 1250 µg/mL)	1960 ± 206 nM	1960 ± 206 nM	16 µM	15.5 ± 1.3 µM	7.9	21.8 ± 0.5 mM	23.5 mM	significantly better than that of the clinical drug gentamicin		more specific to the eukaryotic ribosome than parent (NB30 or NB54) [2]: 1.9 fold
